Where “and” joins values, the source holds several entries; their conditions need not be identical. Equal entries are not always repeated.
Columns and labels:
[1] = biological target: T1, wild type GPR17 (Homo sapiens, UniProt Q13304); conditions: cited from earlier work
[2] = biological target: R255I mutated GPR17 receptor (Homo sapiens, UniProt Q13304, R283I); assay: [35S]GTPγS binding functional assay, 1321N1 cells expressing mutated GPR17; assay type: biochemical; conditions: [35S]GTPγS EC50/IC50, P < 0.05 for antagonists
[3] = biological target: T1, wild type GPR17; assay: FAC-MS screening on GPR17-IAM-I column; assay type: binding; conditions: for t/tc × 100, percentage of breakthrough time with respect to cangrelor / t (min), breakthrough time of the ligand with the immobilized GPR17 / binding class from FAC-MS breakthrough: column GPR17-IAM-I; for t (min), breakthrough time of the ligand with the immobilized GPR17: each 1 µM, single ranking experiment; for binding class from FAC-MS breakthrough: relative to cangrelor, MRS 2179 and UDP
[4] = biological target: mutated GPR17 receptor (Arg255Ile) (Homo sapiens, UniProt Q13304, R283I); assay: FAC-MS screening on mutated GPR17-IAM column; assay type: binding; conditions: Library A, mutated GPR17-IAM column (19.5 million cells); for breakthrough time Mutated GPR17-IAM (Table 5): 1 µM each
[5] = biological target: T1, wild type GPR17; assay: FAC-MS screening on GPR17-IAM-II column; assay type: binding; conditions: Library A; for breakthrough time GPR17-IAM-II (Table 5): 1 µM each; for breakthrough time GPR17-IAM-II (Table 5) / t (min), breakthrough time: column GPR17-IAM-II (19.5 million cells); for t/tC × 100: column GPR17-IAM-II; for t (min), breakthrough time: single ranking experiment
[6] = tested on: P2Y receptors; conditions: as listed in Table 1; cited from earlier work
[7] = biological target: T1, wild type GPR17; assay: [35S]GTPγS binding functional assay, 1321N1 cells expressing wild-type GPR17; assay type: biochemical

R255I mutated GPR17 receptor, sequence (Q13304 29-367 R283I): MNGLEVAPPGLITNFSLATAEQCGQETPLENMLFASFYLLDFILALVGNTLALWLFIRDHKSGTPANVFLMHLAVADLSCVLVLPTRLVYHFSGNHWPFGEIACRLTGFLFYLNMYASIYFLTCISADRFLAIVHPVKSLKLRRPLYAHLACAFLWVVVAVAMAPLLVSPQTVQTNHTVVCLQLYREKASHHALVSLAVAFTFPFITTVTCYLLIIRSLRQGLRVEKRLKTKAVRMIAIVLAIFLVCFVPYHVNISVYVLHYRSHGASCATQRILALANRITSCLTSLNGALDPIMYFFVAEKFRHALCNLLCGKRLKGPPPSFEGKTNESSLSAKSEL
mutated GPR17 receptor (Arg255Ile), sequence (Q13304 29-367 R283I): as above
T1 sequence (Q13304 29-367): as the sequence (Q13304 29-367 R283I) above, with I255R counted along it

SMILES | change in affinity toward mutated vs wild type receptor [2] | t/tc × 100, percentage of breakthrough time with respect to cangrelor ([3]; Library A mixture) | t/tc × 100, percentage of breakthrough time with respect to cangrelor ([3]; Library B mixture) | t (min), breakthrough time of the ligand with the immobilized GPR17 ([3]; Library B mixture) | breakthrough time Mutated GPR17-IAM (Table 5) [4] | t (min), breakthrough time [4] | breakthrough time GPR17-IAM-II (Table 5) [5] | t/tC × 100 [5] | t (min), breakthrough time [5] | binding class from FAC-MS breakthrough [3] | Kd value hypothesized from the chromatographic data ([3]; elutes after cangrelor) | pharmacological profile (agonist/antagonist) in [35S]GTPγS binding ([7]; wild-type GPR17) | increase of activity on replacement of 3-nitrogen by CH (8 versus 7) ([7]; wild-type GPR17, EC50 comparison) | increase in [35S]GTPγS binding by compound alone ([7]; wild-type GPR17) | t/tc × 100, percentage of breakthrough time with respect to cangrelor ([3]; Library A mixture, listed as MRS 2179) | profile at GPR17 [1] | pharmacology [6]
CSCCNc1nc(SCCC(F)(F)F)nc2c1ncn2[C@@H]1O[C@H](COP(=O)([O-])OP(=O)([O-])C(Cl)(Cl)P(=O)([O-])[O-])[C@@H](O)[C@H]1O.[Na+].[Na+].[Na+].[Na+] [Cangrelor, cangrelor, reference compound] | significant increase in affinity | 100.00% | 100.00% | 12.20 min | 13.16 | 13.16 min | 10.60 | 100.00% | 10.60 min and 10.6 min | – | – | – | – | – | – | antagonists | –
N.N.Nc1nc(Cl)nc2c1ncn2[C@H]1C[C@H](OP(=O)(O)O)[C@@H](COP(=O)(O)O)O1 [Compound 12] | – | 25.99% | – | – | 3.54 | – | 3.55 | 33.49% | 3.55 min | – | – | antagonist profile | – | did not induce any significant increase | – | – | –
N.N.N.O=c1[nH]c(=O)n([C@@H]2O[C@H](COP(=O)(O)OP(=O)(O)O)[C@@H](O)[C@H]2O)cc1I [Compound 13] | a trend toward a reduced affinity | 16.54% | – | – | 2.51 | 2.51 min | 2.79 | 26.32% | 2.79 min | weak binders | – | agonist profile | – | – | – | – | –
CCCCC#Cc1cn([C@@H]2O[C@H](COP(=O)(O)OP(=O)(O)O)[C@@H](O)[C@H]2O)c(=O)[nH]c1=O [Compound 14, 5-Hexynyluridine Diphosphate] | – | 19.67% | – | – | 2.90 | – | 2.97 | 28.02% | 2.97 min | weak binders | – | – | – | – | – | – | –
CNc1ncnc2c1ncn2[C@H]1C[C@H](OP(=O)(O)O)[C@@H](COP(=O)(O)O)O1.N.N [MRS2179, MRS 2179] | significant increase in affinity | 28.92% | 28% and 27.87% | 3.40 min | 3.47 | 3.47 min | 3.62 | 34.15% | 3.62 min | – | – | – | – | – | 29% | antagonists | P2Y1 competitive Antagonist
O=c1ccn([C@@H]2O[C@H](COP(=O)([O-])OP(=O)([O-])[O-])[C@@H](O)[C@H]2O)c(=O)[nH]1.[Na+].[Na+].[Na+] [UDP, uridine diphosphate] | a trend toward a reduced affinity | 13% and 13.03% | 12% and 12.30% | 1.50 min | 2.15 | 2.15 min | 2.69 | 25.38% | 2.69 min | – | – | – | – | – | – | agonist | P2Y agonist

The next lines start with results.

change in affinity toward mutated vs wild type receptor [2] | t/tc × 100, percentage of breakthrough time with respect to cangrelor ([3]; Library A mixture) | t/tc × 100, percentage of breakthrough time with respect to cangrelor ([3]; Library B mixture) | t (min), breakthrough time of the ligand with the immobilized GPR17 ([3]; Library B mixture) | breakthrough time Mutated GPR17-IAM (Table 5) [4] | t (min), breakthrough time [4] | breakthrough time GPR17-IAM-II (Table 5) [5] | t/tC × 100 [5] | t (min), breakthrough time [5] | binding class from FAC-MS breakthrough [3] | Kd value hypothesized from the chromatographic data ([3]; elutes after cangrelor) | pharmacological profile (agonist/antagonist) in [35S]GTPγS binding ([7]; wild-type GPR17) | increase of activity on replacement of 3-nitrogen by CH (8 versus 7) ([7]; wild-type GPR17, EC50 comparison) | increase in [35S]GTPγS binding by compound alone ([7]; wild-type GPR17) | t/tc × 100, percentage of breakthrough time with respect to cangrelor ([3]; Library A mixture, listed as MRS 2179) | SMILES | profile at GPR17 [1] | pharmacology [6]
a trend toward an increased affinity | 120.37% | – | – | 16.07 | 16.07 min | 13.07 | 123.30% | 13.07 min | high binding candidates | subnanomolar | agonist profile | – | – | – | N.N.N.N.Nc1nc(C#Cc2ccccc2)nc2c1ncn2[C@@H]1O[C@H](COP(=O)(O)OP(=O)(O)OP(=O)(O)O)[C@@H](O)[C@H]1O [Compound 4] | – | P2Y1,12antogonist
– | – | – | – | 4.08 | – | 3.69 | 34.81% | 3.69 min | – | – | – | – | – | – | CNc1ncnc2c1ncn2[C@@H]1O[C@H](COP(=O)(O)OP(=O)(O)OP(=O)(O)O)[C@@H](O)[C@H]1O.N.N.N.N [Compound 5] | – | –
– | 49.90% | – | – | 7.08 | – | 5.67 | 53.49% | 5.67 min | – | – | agonist profile | – | – | – | N.N.N.N.O=P(O)(O)OP(=O)(O)OP(=O)(O)OC[C@H]1O[C@@H](n2cnc3c(NC4CCCC4)ncnc32)[C@H](O)[C@@H]1O [Compound 6] | – | –
– | 37.56% | – | – | 5.27 | – | 4.50 | 42.45% | 4.50 min and 4.5 min | – | – | agonist profile | – | – | – | CNc1nc(Cl)nc2c1ncn2[C@@H]1O[C@H](COP(=O)(O)OP(=O)(O)OP(=O)(O)O)[C@@H](O)[C@H]1O.N.N.N.N [Compound 7, 2.-choro-N^6 - methyladenosine Triphospate] | – | –
– | 45.05% | – | – | 5.79 | – | 4.77 | 45.00% | 4.77 min | – | – | agonist profile | 7 fold | – | – | CNc1nc(Cl)cc2c1ncn2[C@@H]1O[C@H](COP(=O)(O)OP(=O)(O)OP(=O)(O)O)[C@@H](O)[C@H]1O.N.N.N.N [Compound 8, 2.-choro-3-deaza-N^6-- methyladenosine Triphospate] | – | –

From paper PMC6201305 (Journal of medicinal chemistry, 2010)
